Experimental data published in patent publication US20140377201A1, “SKIN-WHITENING COMPOSITION CONTAINING EXTRACTS FROM TREES INCLUDING PAPER MULBERRY” (Amorepacific Corporation, priority 2010, published 2014).

Columns and labels:
[1] = system: tyrosinase (SIGMA) extracted from mushrooms; experiment: Tyrosinase inhibitory effect; assay type: biochemical; settings: positive control, 40 μg/ml of kojic acid; substrate tyrosine; 37° C.; absorbance at 475 nm
Procedure: The enzyme tyrosinase used in this Test Example was a tyrosinase (SIGMA) extracted from mushrooms. First, the substrate tyrosine was dissolved in distilled water at a concentration of 0.3 mg/ml, and 1.0 ml of the solution was placed in each test tube. Then, 1.0 ml of potassium-phosphate buffer (0.1 M, pH 6.8) and 0.7 ml of distilled water were added thereto, thereby preparing a mixed solution. […] Then, the test tube containing the reaction solution was quenched in ice water to stop the reaction, and the absorbance at 475 nm was measured with a photoelectric spectrophotometer. Then, the tyrosinase inhibitory activity of each of the extracts was calculated using the following equation 1, and the results of the calculation are shown in Table 1 below. Tyrosinase inhibition (%)=100−(absorbance of each extract/absorbance of control×100 [Equation 1]

B16/F10 melanoma cells = experiment: Melanin production inhibitory activity using B16/F10 melanoma cells; assay type: cell-based; settings: 50 μg/ml of arbutin; incubated for 3 days; absorbance at 405 nm
Procedure: Samples, containing 0.001 wt % of each of the extracts of Examples 1 to 9 and Comparative Examples 1 to 3, and 50 /μg/ml of arbutin, were used as test materials. Each of the test materials was added to a culture of B16/F10 melanoma cells (Korean Cell Line Bank) at a given concentration and incubated for 3 days. The medium as removed, and the cells were washed with PBS and lysed with 1N NaOH, and the absorbance at 405 nm was measured. As a control, cells to which no test material was added were used. The skin whitening effects of the test materials were measured by measuring the melanin production inhibitory activity of each test material in comparison with the content of melanin in the control. Melanin production inhibition (%) was calculated using the following equation 2, and the calculation results are shown in Table 2 below.
Melanin production inhibition (%)=100−(absorbance of each test material/absorbance of control)×100 [Equation 2]

SMILES | Tyrosinase inhibition (%) [1] | Melanin production inhibition (%) (B16/F10 melanoma cells)
O=c1cc(CO)occ1O [Kojic acid, kojic acid] | 51% | –
OC[C@H]1O[C@@H](Oc2ccc(O)cc2)[C@H](O)[C@@H](O)[C@@H]1O [Arbutin, arbutin] | – | 48%
